Consider ten molecules from ChEMBL document CHEMBL1201862, “PubChem BioAssay data set” (2004).

Assay [1] deals with Long-chain-fatty-acid--AMP ligase FadD28 (Mycobacterium tuberculosis, UniProt P9WQ59). The assay is described as follows: Fluorescence polarization aasay to screen for inhibitors that compete for the binding of FadD28 to a bisubstrate Measured in Biochemical System Using Plate Reader - 2147-01_Inhibitor_Dose_CherryPick_Activity. It is filed as functional, Mycobacterium tuberculosis H37Rv. (In general: Polarisation of emitted light reports the rotation of a fluorescent probe.)
Chain of Long-chain-fatty-acid--AMP ligase FadD28 (P9WQ59 whole entry): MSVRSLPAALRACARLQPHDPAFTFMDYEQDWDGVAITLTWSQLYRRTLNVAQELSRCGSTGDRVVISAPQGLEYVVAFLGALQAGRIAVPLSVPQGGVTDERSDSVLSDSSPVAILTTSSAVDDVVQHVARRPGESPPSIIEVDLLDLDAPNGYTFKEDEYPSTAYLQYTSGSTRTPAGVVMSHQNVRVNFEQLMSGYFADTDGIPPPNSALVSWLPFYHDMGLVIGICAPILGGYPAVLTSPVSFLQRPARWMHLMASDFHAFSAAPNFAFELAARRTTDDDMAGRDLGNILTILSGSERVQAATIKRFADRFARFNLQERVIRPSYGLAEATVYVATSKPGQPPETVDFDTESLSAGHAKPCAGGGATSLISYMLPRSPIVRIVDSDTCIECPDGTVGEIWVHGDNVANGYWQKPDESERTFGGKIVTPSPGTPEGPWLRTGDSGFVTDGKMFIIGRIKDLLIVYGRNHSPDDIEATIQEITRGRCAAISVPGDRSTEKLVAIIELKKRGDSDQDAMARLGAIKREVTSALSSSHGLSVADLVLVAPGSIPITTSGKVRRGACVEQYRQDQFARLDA

Assay [2] concerns the target Matrix metalloproteinase-14 (Homo sapiens, UniProt P50281). The experiment in a line: Dose Response confirmation of uHTS hits for a small molecule inhibitors of MT1-MMP activation in a fluorescence assay set 1. It is filed as functional.
Assay [3] relates to Vero. The assay is described as follows: cells. The conditions noted are these: Chlorocebus sabaeus. It is filed as functional.
The nature of assay [4]: viability loss in HeLa cells – cytotoxicity control for MgcRacGAP inhibitor project, dose response (AID 624300). It is filed as functional.
The nature of assay [5]: cytotoxicity in HEK293 background cells – cell-based, dry powder, set 2, counter-screen for EBV LMP1 inhibitor project, dose response (AID 624374). It is filed as functional. In general terms: A counterscreen serves to expose hits that act by an unwanted route or on another target.
Assay [6] is described as follows: viability loss in HepG2 hepatoma cells – cell-based, ATP luminescence, cherry-pick, activator set 2, cytotoxicity control, dose response (AID 1053143). It is filed as functional.
Assay [7] has as its target Metabotropic glutamate receptor 3 (Rattus norvegicus, UniProt P31422). The assay is described as follows: inhibitors of rat mGlu3 Galpha15 signaling – TREx293 cells, calcium flux, mGlu3 NAM project, dose response (AID 651840). It is filed as functional. (Calcium assays in cells follow changes in intracellular calcium, usually with a dye or a luminescent sensor.)
In assay [8] the target is Tyrosine-protein phosphatase non-receptor type 11 (Homo sapiens, UniProt Q06124). The experiment in a line: PTPN11 enzyme inhibitors – biochemical, selectivity assay for STEP inhibitor project, dose response (AID 602367). It is filed as functional. The conditions noted are these: read-out: IC50_Mean.
Chain of Tyrosine-protein phosphatase non-receptor type 11 (Q06124 whole entry): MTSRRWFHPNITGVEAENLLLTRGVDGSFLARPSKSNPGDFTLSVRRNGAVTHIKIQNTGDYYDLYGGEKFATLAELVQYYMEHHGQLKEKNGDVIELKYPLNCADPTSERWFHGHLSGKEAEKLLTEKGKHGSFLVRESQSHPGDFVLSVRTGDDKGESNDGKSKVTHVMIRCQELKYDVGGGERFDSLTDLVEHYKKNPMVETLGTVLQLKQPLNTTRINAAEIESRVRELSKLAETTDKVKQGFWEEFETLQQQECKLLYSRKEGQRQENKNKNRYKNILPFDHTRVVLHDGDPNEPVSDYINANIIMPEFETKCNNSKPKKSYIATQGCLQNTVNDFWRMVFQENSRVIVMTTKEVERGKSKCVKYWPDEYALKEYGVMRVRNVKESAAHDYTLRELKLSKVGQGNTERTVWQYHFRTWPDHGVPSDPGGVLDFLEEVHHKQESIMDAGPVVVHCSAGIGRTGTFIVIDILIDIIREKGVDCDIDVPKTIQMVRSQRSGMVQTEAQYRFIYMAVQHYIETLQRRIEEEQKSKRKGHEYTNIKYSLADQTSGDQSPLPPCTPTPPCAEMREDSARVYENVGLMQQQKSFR
Assay [9] has as its target Large T antigen (Simian virus 40, UniProt P03070). It is filed as functional, Betapolyomavirus macacae.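 Also: Confirmatory-stage PubChem screen for compounds that inhibit SV40 T antigen.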
For assay [10], the target named is Bifunctional protein GlmU (Mycobacterium tuberculosis, UniProt P9WMN3). The experiment in a line: Inhibitors of Mycobacterial Glucosamine-1-phosphate acetyl transferase (GlmU). Secondary screen. The arrangement: species or system Mycobacterium tuberculosis H37Rv.
Chain of Bifunctional protein GlmU (P9WMN3 whole entry): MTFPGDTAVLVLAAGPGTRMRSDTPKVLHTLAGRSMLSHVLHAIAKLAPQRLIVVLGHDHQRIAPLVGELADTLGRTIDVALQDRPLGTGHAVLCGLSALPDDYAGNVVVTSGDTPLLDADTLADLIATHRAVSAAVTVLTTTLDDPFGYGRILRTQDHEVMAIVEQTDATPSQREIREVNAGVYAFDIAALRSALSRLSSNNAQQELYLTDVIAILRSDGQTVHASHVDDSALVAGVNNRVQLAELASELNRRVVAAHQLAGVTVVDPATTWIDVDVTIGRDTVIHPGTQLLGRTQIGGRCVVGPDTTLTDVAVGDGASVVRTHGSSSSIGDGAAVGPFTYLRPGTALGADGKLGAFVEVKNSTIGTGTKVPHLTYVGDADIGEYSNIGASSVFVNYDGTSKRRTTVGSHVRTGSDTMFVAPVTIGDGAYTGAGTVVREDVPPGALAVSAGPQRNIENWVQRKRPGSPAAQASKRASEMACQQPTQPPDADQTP
In assay [11] the target is Dual specificity protein phosphatase 3 (Homo sapiens, UniProt P51452). The assay is described as follows: VHR phosphatase inhibition, dose response, selectivity assay for STEP inhibitor project, biochemical (AID 602374). It is filed as functional. The settings on record: read-out: IC50_Mean.
Chain of Dual specificity protein phosphatase 3 (P51452 whole entry): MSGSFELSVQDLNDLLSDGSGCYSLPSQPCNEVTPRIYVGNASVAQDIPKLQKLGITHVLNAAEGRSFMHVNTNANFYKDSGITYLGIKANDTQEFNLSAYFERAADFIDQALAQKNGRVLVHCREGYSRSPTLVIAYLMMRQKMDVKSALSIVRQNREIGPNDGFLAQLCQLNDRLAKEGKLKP
Assay [12] has as its target T1, Tyrosine-protein phosphatase non-receptor type 22 (Homo sapiens, UniProt Q9Y2R2).
T1 sequence (Q9Y2R2 whole entry): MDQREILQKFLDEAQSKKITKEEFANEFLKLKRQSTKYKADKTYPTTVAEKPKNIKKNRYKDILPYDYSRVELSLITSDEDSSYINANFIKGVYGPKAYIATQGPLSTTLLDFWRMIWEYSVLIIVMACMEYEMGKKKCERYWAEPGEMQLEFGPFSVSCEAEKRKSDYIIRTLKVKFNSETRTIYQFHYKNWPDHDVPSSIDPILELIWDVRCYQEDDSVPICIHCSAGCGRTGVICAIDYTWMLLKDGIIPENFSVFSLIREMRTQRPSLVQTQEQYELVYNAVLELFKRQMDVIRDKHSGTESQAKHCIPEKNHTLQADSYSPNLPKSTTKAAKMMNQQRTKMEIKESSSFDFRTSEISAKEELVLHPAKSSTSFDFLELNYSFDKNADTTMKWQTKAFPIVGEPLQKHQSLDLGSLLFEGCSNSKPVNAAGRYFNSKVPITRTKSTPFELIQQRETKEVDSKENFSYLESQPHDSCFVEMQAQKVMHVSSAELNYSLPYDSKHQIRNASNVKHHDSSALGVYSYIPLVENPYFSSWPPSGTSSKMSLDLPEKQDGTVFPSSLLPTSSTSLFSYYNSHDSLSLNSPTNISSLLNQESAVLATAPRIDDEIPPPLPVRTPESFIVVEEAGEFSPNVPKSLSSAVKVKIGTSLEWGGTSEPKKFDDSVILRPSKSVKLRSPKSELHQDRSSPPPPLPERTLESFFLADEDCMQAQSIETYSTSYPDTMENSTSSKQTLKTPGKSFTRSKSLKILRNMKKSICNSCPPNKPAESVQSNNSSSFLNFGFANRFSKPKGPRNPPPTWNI
The experiment in a line: lymphoid phosphatase LYP inhibitors – biochemical, selectivity assay for STEP inhibitor project, dose response (AID 624241). It is filed as functional.

The nature of assay [13]: anti-trypanosomal activity in BESM host cells – imaging, CA-I/72 strain, bovine embryo skeletal muscle, dry powder, dose response (AID 651885). It is filed as functional, cell-based.
In assay [14] the target is Protein Wnt-3a (Mus musculus, UniProt P27467). The assay is described as follows: SAR analysis of small molecule antagonists of Gli-SUFU in a Wnt3a luminescent reporter assay. It is filed as functional.
Chain of Protein Wnt-3a (P27467 whole entry): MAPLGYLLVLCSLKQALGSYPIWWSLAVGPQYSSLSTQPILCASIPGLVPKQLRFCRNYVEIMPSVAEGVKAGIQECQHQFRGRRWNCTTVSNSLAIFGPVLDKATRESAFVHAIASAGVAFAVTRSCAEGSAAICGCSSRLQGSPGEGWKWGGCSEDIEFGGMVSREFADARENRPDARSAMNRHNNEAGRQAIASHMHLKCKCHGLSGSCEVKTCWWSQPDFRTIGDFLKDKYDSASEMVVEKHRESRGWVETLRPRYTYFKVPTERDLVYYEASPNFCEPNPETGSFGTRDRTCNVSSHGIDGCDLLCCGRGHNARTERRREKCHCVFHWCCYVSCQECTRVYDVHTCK
The nature of assay [15]: loss of viability in HepG2 cells – cell-based, CellTiter-Glo, cherry-picked, cytotoxicity control for Shn3 inhibitor project, dose response (AID 624134). It is filed as functional.
Assay [16] can be described thus: non-specific 3'UTR reporter inhibition in Clone20-Shn3RL – cell-based, Renilla luciferase, cherry-picked, counter-screen for Shn3 inhibitor project, dose response (AID 624133). It is filed as functional.
Assay [17] can be described thus: reduction of Shn3 3'UTR-driven luciferase in osteoblasts – cell-based, Clone20 osteoblasts, firefly luciferase, cherry-picked, dose response (AID 624132).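 Also: firefly luciferase luminescence from reporter carrying the Shn3 3'UTR in osteoblasts.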 It is filed as functional.
The nature of assay [18]: Shn3 3'UTR reporter signal decrease – cell-based, Clone20 osteoblasts, firefly luciferase, cherry-pick, set 2, Schnurri-3 inhibitor project, dose response (AID 720490).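 Also: actives lower the luminescence signal as inhibitors.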 It is filed as functional.

Calls of active or inactive are those of the source.

Chain of Metabotropic glutamate receptor 3 (P31422 whole entry): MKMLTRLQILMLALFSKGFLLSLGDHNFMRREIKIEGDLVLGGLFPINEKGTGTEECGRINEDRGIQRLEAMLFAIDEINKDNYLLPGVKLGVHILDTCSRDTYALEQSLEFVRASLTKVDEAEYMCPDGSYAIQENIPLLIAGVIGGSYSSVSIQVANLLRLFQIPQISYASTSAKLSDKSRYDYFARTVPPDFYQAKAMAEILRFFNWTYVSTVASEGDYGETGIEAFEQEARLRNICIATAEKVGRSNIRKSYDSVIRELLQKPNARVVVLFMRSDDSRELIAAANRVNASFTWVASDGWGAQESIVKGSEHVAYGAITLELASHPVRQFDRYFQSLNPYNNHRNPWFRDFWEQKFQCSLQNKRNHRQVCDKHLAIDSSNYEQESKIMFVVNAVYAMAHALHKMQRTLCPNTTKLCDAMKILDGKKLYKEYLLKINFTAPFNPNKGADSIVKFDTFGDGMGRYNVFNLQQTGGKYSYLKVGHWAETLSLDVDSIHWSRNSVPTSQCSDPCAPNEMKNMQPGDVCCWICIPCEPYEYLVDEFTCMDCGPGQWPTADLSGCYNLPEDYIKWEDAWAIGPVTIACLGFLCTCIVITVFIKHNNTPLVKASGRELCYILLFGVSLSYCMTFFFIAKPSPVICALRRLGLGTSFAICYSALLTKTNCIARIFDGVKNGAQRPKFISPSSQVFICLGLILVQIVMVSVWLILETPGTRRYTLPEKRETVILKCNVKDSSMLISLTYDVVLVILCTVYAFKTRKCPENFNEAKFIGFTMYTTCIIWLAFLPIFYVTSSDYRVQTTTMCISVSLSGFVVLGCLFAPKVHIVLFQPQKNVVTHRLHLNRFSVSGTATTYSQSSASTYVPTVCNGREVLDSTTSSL
Chain of Large T antigen (P03070 whole entry): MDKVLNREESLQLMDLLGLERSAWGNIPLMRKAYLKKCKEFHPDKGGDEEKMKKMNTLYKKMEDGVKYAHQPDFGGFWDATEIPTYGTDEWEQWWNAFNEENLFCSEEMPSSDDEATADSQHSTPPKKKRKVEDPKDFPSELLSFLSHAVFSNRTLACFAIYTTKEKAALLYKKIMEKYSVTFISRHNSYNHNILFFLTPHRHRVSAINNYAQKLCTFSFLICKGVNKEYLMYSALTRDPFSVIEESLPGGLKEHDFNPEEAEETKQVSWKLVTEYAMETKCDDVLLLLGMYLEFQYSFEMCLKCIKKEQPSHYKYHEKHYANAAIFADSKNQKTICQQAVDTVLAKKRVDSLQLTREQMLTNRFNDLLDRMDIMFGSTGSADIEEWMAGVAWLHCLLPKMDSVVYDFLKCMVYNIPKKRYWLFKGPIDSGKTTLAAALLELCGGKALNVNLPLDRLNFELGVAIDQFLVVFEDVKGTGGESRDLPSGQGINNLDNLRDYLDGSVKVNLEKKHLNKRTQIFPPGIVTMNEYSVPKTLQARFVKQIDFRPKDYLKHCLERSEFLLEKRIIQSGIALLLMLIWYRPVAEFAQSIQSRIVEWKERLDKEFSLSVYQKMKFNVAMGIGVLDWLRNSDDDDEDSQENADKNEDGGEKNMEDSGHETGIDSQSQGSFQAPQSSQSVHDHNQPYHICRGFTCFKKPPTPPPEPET

Take `O=C(NC(NC(=S)N1CCOCC1)C(Cl)(Cl)Cl)c1cccc2ccccc12` (stereo not drawn): the AC50 in assay [1] is > 100 µM (inactive).
For the molecule `CCCN1/C(=C2/SC(=S)N(CC)C2=O)C=Cc2ccccc21`, the IC50 in [2] was 30.6 µM (inactive).
For `O=[N+]([O-])/C=C/c1cc2ccccc2[nH]1`, the CC50 in [3] was > 25 µM (active); in [4], 94.6 µM (active).
For `C[C@@H]1CN([C@@H](C)CO)C(=O)Cc2cc(NC(=O)Cc3ccccc3)ccc2O[C@@H]1CN(C)Cc1ccc(C(F)(F)F)cc1`, the AbsAC35 in assay [5] worked out at 279.95 µM.
On to `Cc1ccc(-c2noc(-c3ccccc3F)n2)cc1`, for which the AC50 in assay [6] was 26 µM (active).
With `COc1ccc(C#Cc2ccc(C(=O)NC(C)CO)cc2)cc1` (stereo not drawn), the IC50 in assay [7] came to 4.73 µM.
With `O=C(O)C(S)C(S)C(=O)O` (stereo not drawn), the IC50 in [8] is 0.518 µM (active); in [9], 75.9 µM (active); in assay [10], 181 µM (active); in assay [11] it was 3.22 µM (active); in assay [12], 4.48 µM (active).
With `C[C@H]1CN([C@@H](C)CO)C(=O)c2cccc(NC(=O)c3ccncc3)c2O[C@@H]1CN(C)Cc1ccncc1`, in assay [13], the IC50 was > 20 µM (inactive).
With `CC(C)(C)OC(=O)N1CCN(c2cc(NC(=O)c3ccccc3)ncn2)CC1`, the IC50 in assay [14] was > 21.8 µM (inactive).
For the molecule `CC(=O)Nc1ccc(OCC(=O)Nc2ccc(Cl)c(S(=O)(=O)N3CCOCC3)c2)cc1`, the AC50 in assay [15] is 53.5 µM (active); in [16] it was 9.23 µM (active); in assay [17] it was 1.59 µM (active); in assay [18] it was 3.49 µM (active).

The AC50 is the concentration giving half of the maximal activity seen. The CC50 is the concentration that lowers cell viability or growth by half.
